Laboratory results published in patent US20160297763A1, “Heteroaryl hydroxamic acid derivatives and their use in the treatment, amelioration or prevention of a viral disease” (priority 2011, published 2016).
Structures can show the parent of a compound that is named as a salt.

SMILES | melting point
O=C(c1cc(C2=CCNCC2)ccn1)N(O)Cc1ccccc1 (as salt: hydrochloride) | 140 to 150 °C
O=C(c1cc(N2CCC(N3CCCC3)CC2)ccn1)N(O)Cc1ccccc1 | 135 to 140 °C
CN1CC=C(c2ccnc(C(=O)N(O)Cc3ccccc3)c2)CC1 | 135 to 155 °C
O=C(c1cc(C2=CC3CCC(C2)N3)ccn1)N(O)Cc1ccccc1 (centres unmarked) | 95 to 100 °C
Cc1c(-c2cccc(Cl)c2F)sc2nc(N)[nH]c(=O)c12 | 330 to 350 °C
CC(C)(C)OC(=O)N1CC=C(c2ccnc(C(=O)N(O)Cc3ccccc3)c2)CC1 | 125 °C
O=C(NO)c1ccc(N2CCCC2)cn1 | 220 to 225 °C
Cl.O=C(c1cc(N2CCC(F)(F)C2)ccn1)N(O)Cc1ccccc1 | 162 to 166 °C
Cl.O=C(NO)c1cc(NS(=O)(=O)Cc2cc(Cl)cc(Cl)c2)ccn1 | 203 to 205 °C
Cl.O=C(c1cc(NS(=O)(=O)Cc2ccc(F)cc2)ccn1)N(O)Cc1ccccc1 | 178 to 183 °C
CC(c1ccccc1)c1cc2c(=O)[nH]c(N)nc2s1 (centres unmarked) | 260 to 270 °C
Cc1c(-c2ccc(Cl)c(F)c2)sc2nc(N)[nH]c(=O)c12 | 350 to 370 °C
Cc1c(-c2ccccc2)sc2nc(NCCN)[nH]c(=O)c12 | 192 to 194 °C
NC(=O)c1ccc(-c2ccnc(C(=O)N(O)Cc3ccccc3)c2)cc1 | 155 to 160 °C
O=C(c1cc(-c2ccc(Cl)c(Cl)c2)ccn1)N(O)Cc1ccccc1 | 125 to 130 °C
Cl.O=C(NO)c1cc(NS(=O)(=O)Cc2cccc(F)c2)ccn1 | 195 to 200 °C
Cc1c(-c2cccc(C#N)c2)sc2nc(N)[nH]c(=O)c12 | > 350 °C
Cc1c(Cc2ccccc2)sc2nc(N)[nH]c(=O)c12 | 292 to 294 °C
CC(C)c1cccc(-c2ccc(C(=O)N(O)CCc3ccccc3)nc2)c1 | 110 to 115 °C
O=C(c1cc2ccccc2cn1)N(O)CCc1ccccc1 | 90 to 95 °C
CCON(C)C(=O)c1ccc(-c2ccccc2)cn1 | 70 to 75 °C
Cc1c(-c2ccnc(C(F)(F)F)c2)sc2nc(N)[nH]c(=O)c12 | 335 to 355 °C
CCONC(=O)c1ccc(-c2cccc(CN(C)Cc3ccccc3)c2)cn1.Cl (hydrate or solvate) | 85 to 90 °C
Cc1c(-c2ccnc(Cl)c2F)sc2nc(N)[nH]c(=O)c12 | 330 to 350 °C
Cc1c(-c2cccnc2)sc2nc(N)[nH]c(=O)c12 | 280 to 290 °C
Cl.O=C(c1cc(N2CCC(F)(F)CC2)ccn1)N(O)Cc1ccccc1 | 90 to 95 °C

SMILES | melting point
O=C(c1cc(N2CCC3(CC2)OCCO3)ccn1)N(O)Cc1ccccc1 | 98 to 102 °C
Cc1c(-c2ccc(Cl)c(C(=O)N(C)C)c2)sc2nc(N)[nH]c(=O)c12 | 300 to 320 °C
O=C(c1cc(NS(=O)(=O)Cc2ccccc2)ccn1)N(O)Cc1ccccc1 | 190 to 195 °C
Cc1c(-c2ccc(Cl)c(C#N)c2)sc2nc(N)[nH]c(=O)c12 | > 360 °C
CCONC(=O)c1ccc(-c2ccccc2)cn1 | 100 to 105 °C
Cc1c(-c2cc(C(F)(F)F)cc(C(F)(F)F)c2)sc2nc(N)[nH]c(=O)c12 | 344 to 347 °C
Cc1c(-c2cc(CN(C)C)ccc2F)sc2nc(N)[nH]c(=O)c12 | 230 to 250 °C
O=C(NOCc1ccccc1)c1ccc(N2CCCC2)cn1 | 165 to 170 °C
Cc1c(-c2ccccc2)sc2nc(NC3CCCCC3)[nH]c(=O)c12 | 265 to 270 °C
O=C(c1cc(N2CCCCC2)ccn1)N(O)CCCc1ccccc1 | 125 to 130 °C
CCONC(=O)c1cc(N)ccn1.Cl (hydrate or solvate) | 114 to 120 °C
Cl.O=C(NO)c1cc(NS(=O)(=O)Cc2cccc(Cl)c2)ccn1 | 198 to 204 °C
O=C(c1cc2ccccc2cn1)N(O)Cc1ccccc1 | 120 to 125 °C
CN(C)S(=O)(=O)c1cccc(-c2ccnc(C(=O)N(O)Cc3ccccc3)c2)c1 | 110 to 115 °C
Nc1nc2sc(-c3ccccc3)cc2c(=O)[nH]1 | > 360 °C
O=C(c1cc(-c2ccccc2)ccn1)N(O)Cc1ccccc1 | 160 to 165 °C
O=C(c1cc(C2=CCCCC2)ccn1)N(O)Cc1ccccc1 | 118 to 122 °C
Cc1c(-c2cccc(CN(C)C)c2)sc2nc(N)[nH]c(=O)c12 | 207 to 212 °C
Cl.O=C(NO)c1cc(NS(=O)(=O)C(c2ccccc2)c2ccccc2)ccn1 | 162 to 168 °C
O=C(c1cc(NS(=O)(=O)c2ccccc2)ccn1)N(O)Cc1ccccc1 | 175 to 180 °C
CCONC(=O)c1cc(N2CCOCC2)ccn1.Cl (hydrate or solvate) | 200 to 202 °C
O=C(c1cc(-c2ccc(Cl)cc2)ccn1)N(O)Cc1ccccc1 | 190 to 195 °C
Cc1c(C2=CCNCC2)sc2nc(N)[nH]c(=O)c12 | 290 to 310 °C
Cc1c(-c2ccc(F)c(C#N)c2)sc2nc(N)[nH]c(=O)c12 | 330 to 350 °C
Cc1sc2nc(N)[nH]c(=O)c2c1-c1ccc(F)cc1 | 360 to 362 °C
Cc1c(-c2cccc(C#N)c2F)sc2nc(N)[nH]c(=O)c12 | 350 to 370 °C

SMILES | melting point
Cl.O=C(c1cc(NS(=O)(=O)Cc2cc(Cl)cc(Cl)c2)ccn1)N(O)Cc1ccccc1 | 189 to 194 °C
Cc1c(-c2ccccc2)sc2nc(NCCN3CCOCC3)[nH]c(=O)c12 | 240 to 246 °C
Cc1c(-c2ccccc2)sc2nc(NCCN(C)C)[nH]c(=O)c12 | 199 to 201 °C
Cc1c(-c2ccc(F)c(C#N)c2F)sc2nc(N)[nH]c(=O)c12 | 360 to 380 °C
O=C(Nc1ccnc(C(=O)NO)c1)c1ccccc1 | 175 to 184 °C
Cc1c(-c2ccc(Cl)c(O)c2)sc2nc(N)[nH]c(=O)c12 | > 350 °C
CN(OCc1ccccc1)C(=O)c1cc2ccccc2cn1 | 70 to 75 °C
CCONC(=O)c1cc(NCCCc2cccc(Cl)c2)ccn1 | 100 to 105 °C
Nc1nc2sc(-c3ccccc3)c(Cl)c2c(=O)[nH]1 | > 350 °C
O=C(c1ccc(N2CCCC2)cn1)N(Cc1ccccc1)OCc1ccccc1 | 95 to 100 °C
O=C(NOCc1ccccc1)c1cc2ccccc2cn1 | 85 to 90 °C
Cc1cc(-c2sc3nc(N)[nH]c(=O)c3c2C)ccc1Cl | 330 to 350 °C
CC(C)c1cccc(-c2ccc(C(=O)NO)nc2)c1 | 130 to 135 °C
CC(C)c1cc2c(=O)[nH]c(N)nc2s1 | 347 to 349 °C
Cc1c(-c2ccc(Cl)nc2)sc2nc(N)[nH]c(=O)c12 | 230 to 250 °C
Cc1c(Cc2ccc(Cl)cc2)sc2nc(N)[nH]c(=O)c12 | 300 to 320 °C
Cc1cccc(-c2ccc(C(=O)N(O)Cc3ccccc3)nc2)c1 | 139 to 140 °C
O=C(c1ccc(N2CCCCC2)cn1)N(O)Cc1ccccc1 | 110 to 115 °C
Cc1c(-c2ccccc2)sc2nc(N)[nH]c(=O)c12 | 356 to 358 °C
O=C(NOC(=O)c1cc(N2CCCCC2)ccn1)c1cc(N2CCCCC2)ccn1 | 210 to 215 °C
Cc1c(-c2ccccc2)sc2nc(N3CCOCC3)[nH]c(=O)c12 | 300 to 320 °C
O=C(c1cc(C2CCCCC2)ccn1)N(O)Cc1ccccc1 | 106 to 110 °C
CN(C)CCNC(=O)c1cccc(-c2ccnc(C(=O)N(O)Cc3ccccc3)c2)c1 | 65 to 70 °C
Cl.O=C(NO)c1cc(NS(=O)(=O)Cc2ccccc2Cl)ccn1 | 215 to 220 °C
O=C(c1ccc(N2CCCC2)cn1)N(O)Cc1ccccc1 | 115 to 120 °C
O=C(NOCc1ccccc1)c1cc(N2CCCCC2)ccn1 | 135 to 140 °C

SMILES | melting point
Cc1c(-c2ccc(Cl)c(C(F)(F)F)c2)sc2nc(N)[nH]c(=O)c12 | > 350 °C
Cl.O=C(c1cc(NS(=O)(=O)Cc2cccc(F)c2)ccn1)N(O)Cc1ccccc1 | 111 to 113 °C
Cc1c(-c2cc(C#N)ccc2Cl)sc2nc(N)[nH]c(=O)c12 | > 350 °C
Nc1nc2sc(Cc3ccccc3)cc2c(=O)[nH]1 | 294 to 296 °C
CCONC(=O)c1cc(NCc2cccc(OCc3ccccc3)c2)ccn1.Cl | 70 to 75 °C
Cl.O=C(NO)c1cc(NS(=O)(=O)Cc2cccc(Cl)c2Cl)ccn1 | 210 to 218 °C
O=C(c1cc(N2CCCC(F)(F)C2)ccn1)N(O)Cc1ccccc1 | 140 to 145 °C
C[C@@H]1CN(c2ccnc(C(=O)N(O)Cc3ccccc3)c2)C[C@H](C)O1 | 180 to 185 °C
Cc1c(-c2ccccc2)sc2nc(NCCNC(=O)CCN3CCN(C)CC3)[nH]c(=O)c12 | 235 to 245 °C
O=C(c1cc(-c2ccccc2)ccn1)N(O)Cc1ccc(F)cc1 | 135 to 140 °C
Cl.O=C(c1cc(N2CCOCC2)ccn1)N(O)Cc1ccccc1 | 185 to 190 °C
Cc1c(-c2c(F)ccc(Cl)c2F)sc2nc(N)[nH]c(=O)c12 | 330 to 350 °C
Cc1c(-c2ccc(F)c(C(F)(F)F)c2)sc2nc(N)[nH]c(=O)c12 | 310 to 330 °C
O=C(c1ccc(-c2ccccc2)cn1)N(O)Cc1ccccc1 | 145 to 150 °C
Cl.O=C(c1cc(NS(=O)(=O)Cc2cccc(C(F)(F)F)c2)ccn1)N(O)Cc1ccccc1 | 178 to 182 °C
Cc1c(-c2ccccc2)sc2nc(NCCCO)[nH]c(=O)c12 | 227 to 229 °C
O=C(c1cc(N2CCOCC2)ccn1)N(O)Cc1ccccc1 | 105 to 110 °C
Cl.O=C(NO)c1cc(N2CCCCC2)ccn1 (hydrate or solvate) | 200 to 202 °C
Cc1c(-c2cc(C#N)ccc2F)sc2nc(N)[nH]c(=O)c12 | 332 to 336 °C
Cl.O=C(NO)c1cc(NS(=O)(=O)Cc2cccc(C(F)(F)F)c2)ccn1 | 201 to 204 °C
O=C(c1cc2ccccc2cn1)N(Cc1ccccc1)OCc1ccccc1 | 70 to 75 °C
CC(C)(C)OC(=O)NC1CCN(c2ccnc(C(=O)N(O)Cc3ccccc3)c2)CC1 | 135 to 140 °C
CC(C)(C)OC(=O)N1CCC=C(c2ccnc(C(=O)N(O)Cc3ccccc3)c2)C1 | 128 to 134 °C
